Source: ChEMBL document CHEMBL1156732, “Identification of SVM-based classification model, synthesis and evaluation of prenylated flavonoids as vasorelaxant agents” (Bioorg Med Chem, 2008)
Each block holds one molecule with its values, some of them ahead of it.

Assays:
[1] = system: Aorta; assay: Vasorelaxant activity against phenylephrine-induced contraction in Sprague-Dawley rat aorta; assay type: functional, tissue-based
[2] = system: Aorta; assay: Vasorelaxant activity against phenylephrine-induced contraction in Sprague-Dawley rat aorta relative to phenylephrine; assay type: functional

Compound: COc1cc(-c2cc(=O)c3c(O)cc(O)c(CC=C(C)C)c3o2)cc(OC)c1OC
EC50 [1]: 64.3 µM
Emax [2]: 90.1%

Compound: CC(C)=CCc1c(O)cc(O)c2c(=O)cc(-c3cccc(Br)c3)oc12
EC50 [1]: 95.9 µM
Emax [2]: 82.8%

Compound: CC(C)=CCc1c(O)cc(O)c(C(=O)/C=C/c2ccc3c(c2)OCO3)c1O
EC50 [1]: 4.21 µM
Emax [2]: 90%

Compound: COc1cc(/C=C/C(=O)c2c(O)cc(O)c(CC=C(C)C)c2O)cc(OC)c1OC
Emax [2]: 78.5%

Compound: CC(C)=CCc1c(O)cc(O)c(C(=O)/C=C/c2ccc(Cl)cc2)c1O
EC50 [1]: 679 µM
Emax [2]: 64.4%

Compound: CC(C)=CCc1c(O)cc(O)c2c(=O)cc(-c3cccc(O)c3)oc12
Emax [2]: 64.6%

Compound: COc1cc(-c2cc(=O)c3c(O)cc(O)c(CC=C(C)C)c3o2)ccc1O
EC50 [1]: 49.3 µM
Emax [2]: 70.6%

Further lines, with some results ahead:

EC50 [1]: 1.32 µM
Compound: CC(C)=CCc1c(O)cc(O)c2c1OC(c1ccc3c(c1)OCO3)CC2=O (racemic)
Emax [2]: 77.3%

EC50 [1]: 1.56 µM
Compound: CC(C)=CCc1c(O)cc(O)c2c1OC(c1cccc(Br)c1)CC2=O (racemic)
Emax [2]: 78.2%

EC50 [1]: 10.1 µM
Compound: COc1cc(C2CC(=O)c3c(O)cc(O)c(CC=C(C)C)c3O2)ccc1O (racemic)
Emax [2]: 95.8%

EC50 [1]: 5.79 µM
Compound: CC(C)=CCc1c(O)cc(O)c2c1OC(c1ccccc1)CC2=O (racemic)
Emax [2]: 122%
